Assay [1] has as its target T1, SolyncADH (Slycopersicum06g050630), tomato noncanonical arogenate dehydrogenase, wild type (Solanum lycopersicum, UniProt K4C5K7).
T1 construct: wild type
Nature of the assay: ADH and PDH assay: steady-state kinetics and Tyr inhibition, SolyncADH wild type. Type of assay: biochemical. How it is done: (§1) Kinetic parameters of purified recombinant proteins were determined from assays conducted at varying arogenate (19.5 μM-5 mM) and prephenate concentration (23.4 μM-6 mM). Standard assay conditions were 25 mM HEPES pH 7.6, 50 mM KCl and 10% (v/v) ethylene glycol, and 0.5 mM NADP^+ with varied substrate, concentrations. Reactions were initiated by addition of enzyme and incubated at 37° C. monitored every 10-15 seconds at […] using a microplate reader (Tecan Genios). Kinetic parameters were determined by fitting initial velocity data to the Michaelis-Menten equation using the Origin software (OriginLab).
(§2) Arogenate was prepared by enzymatic conversion of prephenate (Sigma-Aldrich) as previously reported^56. For Tyr inhibition assays, Tyr was dissolved in a slightly basic solution (0.025 N NaOH) due to solubility issues, thus the concentration of lysis buffer was increased to 500 mM HEPES final concentration to buffer against the changes by addition of Tyr in the reaction. Reactions containing varying amounts of Tyr (10 μM-8 mM) with 0.5 mM NADP^+ and either 1 mM arogenate or 0.8 mM prephenate were monitored as above.

Assay [2] concerns the target T2, MtncADH (Mt5g083530), Medicago truncatula noncanonical arogenate dehydrogenase, wild type (Medicago truncatula, UniProt A0A217FAR3).
T2 construct: wild type
T2 sequence (A0A217FAR3 1-266): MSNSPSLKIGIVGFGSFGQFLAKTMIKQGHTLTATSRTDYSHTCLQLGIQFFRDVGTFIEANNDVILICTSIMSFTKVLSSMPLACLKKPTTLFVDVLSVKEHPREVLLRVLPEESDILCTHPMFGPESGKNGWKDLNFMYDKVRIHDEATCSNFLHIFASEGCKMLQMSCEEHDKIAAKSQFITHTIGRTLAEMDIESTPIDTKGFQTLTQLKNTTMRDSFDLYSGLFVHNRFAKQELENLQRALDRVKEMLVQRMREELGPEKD
The experiment in a line: ADH and PDH assay: steady-state kinetics and Tyr inhibition, MtncADH wild type. The assay is classed as biochemical. Particulars: for IC50: IC50^Tyr, 0.5 mM NADP^+. How it is done: as §1, §2

Assay [3] addresses T3, Glycine max GmncADH variant D218N (Glycine max, UniProt I1M7P5, D218N).
T3 construct: D218N by site-directed mutagenesis
The experiment in a line: ADH and PDH assay: steady-state kinetics and Tyr inhibition, GmncADH D218N. The assay is classed as biochemical, Glycine max (soybean). Particulars: versus wild-type; ADH activity, 0-8 mM Tyr. The protocol: as §1, §2

Assay [4] has as its target Glycine max GmPDH1 variant M219T/N222D (Glycine max, UniProt I1MYY4, M219T/N222D). Nature of the assay: ADH and PDH assay: steady-state kinetics and Tyr inhibition, GmPDH1 M219T/N222D. The following applies: IC50^Tyr, 0.5 mM NADP^+. Type of assay: biochemical, Glycine max (soybean). How it is done: as §1, §2
Assay [5] deals with SynADH, Synechocystis sp. PCC 6803 arogenate dehydrogenase. The following applies: cited from earlier work.
Assay [6] deals with T4, GmncADH (Gm14g05990), soybean (Glycine max) noncanonical arogenate dehydrogenase, wild type (Glycine max, UniProt I1M7P5).
T4 construct: wild type
T4 sequence (I1M7P5 1-266): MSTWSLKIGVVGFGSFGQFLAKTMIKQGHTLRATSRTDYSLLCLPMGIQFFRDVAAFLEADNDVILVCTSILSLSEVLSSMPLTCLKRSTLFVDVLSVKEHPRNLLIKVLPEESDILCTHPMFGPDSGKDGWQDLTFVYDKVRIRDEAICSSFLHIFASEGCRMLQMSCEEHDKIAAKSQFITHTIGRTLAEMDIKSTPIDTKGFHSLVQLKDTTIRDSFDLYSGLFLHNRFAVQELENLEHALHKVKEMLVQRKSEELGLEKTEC
The experiment in a line: ADH and PDH assay: steady-state kinetics and Tyr inhibition, GmncADH wild type. The assay is classed as biochemical. The protocol: as §1, §2

The target in assay [7] is AtADH2 (At1g15710), Arabidopsis thaliana canonical arogenate dehydrogenase, wild type (Arabidopsis thaliana, UniProt Q9LMR3). Nature of the assay: Tyr inhibition of AtADH2 wild type. Particulars: ADH activity, 0-8 mM L-Tyr. The assay is classed as biochemical. The protocol: as §1, §2
Chain of AtADH2 (At1g15710), Arabidopsis thaliana canonical arogenate dehydrogenase, wild type (Q9LMR3 37-358): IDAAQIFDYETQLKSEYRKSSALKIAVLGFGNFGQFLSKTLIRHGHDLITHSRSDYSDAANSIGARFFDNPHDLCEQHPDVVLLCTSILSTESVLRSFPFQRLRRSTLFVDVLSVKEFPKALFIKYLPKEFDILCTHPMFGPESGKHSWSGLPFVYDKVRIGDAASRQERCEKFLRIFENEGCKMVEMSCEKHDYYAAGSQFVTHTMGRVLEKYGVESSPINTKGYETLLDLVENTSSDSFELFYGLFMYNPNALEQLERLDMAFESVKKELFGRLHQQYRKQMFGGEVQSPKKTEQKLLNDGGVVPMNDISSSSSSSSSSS

Chain of Glycine max GmPDH1 variant M219T/N222D (I1MYY4 1-271 M219T/N222D): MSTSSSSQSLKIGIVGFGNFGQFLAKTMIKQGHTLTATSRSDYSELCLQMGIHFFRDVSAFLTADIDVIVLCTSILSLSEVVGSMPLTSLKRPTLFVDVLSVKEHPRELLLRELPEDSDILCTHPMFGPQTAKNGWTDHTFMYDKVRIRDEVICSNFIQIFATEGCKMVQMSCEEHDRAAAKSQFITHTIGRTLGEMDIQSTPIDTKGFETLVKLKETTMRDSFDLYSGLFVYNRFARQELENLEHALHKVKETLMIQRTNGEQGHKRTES
T3 sequence (I1M7P5 1-266 D218N): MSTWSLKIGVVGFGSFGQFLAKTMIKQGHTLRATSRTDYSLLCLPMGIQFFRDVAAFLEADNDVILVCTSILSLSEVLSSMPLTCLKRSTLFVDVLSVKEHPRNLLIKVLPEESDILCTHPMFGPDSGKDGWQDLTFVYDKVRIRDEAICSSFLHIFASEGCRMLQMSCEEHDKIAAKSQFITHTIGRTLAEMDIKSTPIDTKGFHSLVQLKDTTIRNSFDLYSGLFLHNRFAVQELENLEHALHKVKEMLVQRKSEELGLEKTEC
T1 sequence (K4C5K7 1-272): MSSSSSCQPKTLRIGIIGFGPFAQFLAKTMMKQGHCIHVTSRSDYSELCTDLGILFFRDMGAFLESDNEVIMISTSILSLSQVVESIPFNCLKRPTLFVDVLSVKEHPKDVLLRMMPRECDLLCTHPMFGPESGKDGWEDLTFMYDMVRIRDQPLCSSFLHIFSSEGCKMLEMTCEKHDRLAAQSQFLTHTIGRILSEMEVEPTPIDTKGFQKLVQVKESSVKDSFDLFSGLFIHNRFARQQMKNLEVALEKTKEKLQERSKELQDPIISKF

With `N[C@@H](Cc1ccc(O)cc1)C(=O)O` [Tyr, L-Tyrosine], the IC50 in assay [1] was 12.8 mM; in assay [2] (substrate arogenate (1 mM)), 2.2 ± 0.5 mM; in assay [2] (substrate prephenate (0.8 mM)), 0.6 ± 0.1 mM; in assay [4] (substrate arogenate (1 mM)) it was 5.9 ± 0.5 mM; in assay [4] (substrate prephenate (0.8 mM)), 11.1 ± 1.2 mM; in assay [6], 15.5 ± 0.8 mM. In assay [7], this molecule registered an IC50 of 0.038 mM. The “IC50 (Tyr), in words” value in assay [2] (sensitivity to Tyr) and in assay [6] (sensitivity to Tyr) was “in the mM range” each time. Also, the “sensitivity to Tyr inhibition” value in assay [3] was “significantly less sensitive to Tyr inhibition”. Also, the Tyr sensitivity result in assay [5] was “Tyr insensitive”.

The IC50 is the concentration at which inhibition is half-maximal.

Source of the values: patent publication US12134788B2, “Engineered prephenate dehydrogenases and arogenate dehydrogenases and methods of using the same” (Wisconsin Alumni Research Foundation, priority 2017, dated 2024).
